# Experimental data from US20160303133A1, “TREATMENT OF GASTROINTESTINAL AND OTHER DISORDERS” (NUMEDII, INC., priority 2013, published 2016).
# What was measured:
# [1] = tested on: TNBS (2,4,6-trinitrobenzenesulfonic acid) rat colitis model; assay: Prophylactic efficacy study in TNBS rat colitis model, colon histopathology (Example 3); format: in vivo, Sprague-Dawley rats
# Description: Prophylactic efficacy study in TNBS (2,4,6-trinitrobenzenesulfonic acid) rat colitis model.
# Preparation of doses: For Groups 1, 2: 50 ml 0.1M acetic acid and 30 ml sterile water were combined. The pH was adjusted from 4.45 to 6.7 with 0.1N NaOH. The stir bar was removed and the solution made up to 100 ml with sterile water. For Group 3, 133.9 mg prednisolone 21-hemisuccinate sodium salt was dissolved in 100 ml de-ionized water to prepare a 1 mg/ml solution. For Group 4, 600 mg Nadolol was dissolved in 50 ml 0.1M acetic acid and 30 ml sterile water. The pH was adjusted from 4.45 to 6.7 with 0.1N NaOH, and the solution made up to 100 ml with sterile water. For Group 5, 1.2 g Nadolol was dissolved in 50 ml 0.1M acetic acid and 30 ml sterile water. The pH was adjusted from 4.45 to 6.7 with 0.1N NaOH and the solution made up to 100 ml with sterile water. For Group 6: 1 g cellulose gum was dissolved in 50 ml 0.1N acetic acid and 30 ml de-ionized water. The volume was made up to 100 ml with sterile water. For Group 7, 600 mg Nadolol was dissolved in 50 ml 0.1M acetic acid and 30 ml sterile water. 1 g cellulose gum was added and dissolved into the solution and the solution made up to 100 ml with sterile water. For Group 8, 1.2 g Nadolol was dissolved in 50 ml 0.1M acetic acid and 30 ml sterile water. 1 g cellulose gum was added and dissolved into the solution and the solution made up to 100 ml with sterile water.
# (Day −1) 84 Sprague-Dawley rats (male, 160-180 g each) were sorted into treatment groups based upon average body weight. The rats were weighed and food-deprived. The rats in groups 1-5 were dosed orally (PO) at 10 ml/kg with their respective solutions according to Table 2. The rats in Groups 6-8 were anesthetized intra-rectally (IR) instilled with 10 ml/kg of their respective treatment according to Table 2, the anus was pinched closed and the rat held inverted until recovered from anesthesia (at least 1 min).
# After 24 hours (day 0), an aqueous solution of TNBS (2,4,6-trinitrobenzenesulfonic acid) 16 mg/ml in 50% ethanol was made and the rats were weighed and dosed as in TABLE 2. One hour later, the rats anesthetized and Groups 2-8 were intra-rectally instilled with 4 ml/kg TNBS solution (64 mg/kg), the anus was pinched closed and the rat held inverted until recovered from anesthesia (at least 1 min). Group 1 received de-ionized water. The rats were re-fed after recovery from TNBS instillation.
# The rats were weighed and dosed as in TABLE 2 each day for the next six days (day 2-7), The rats were anesthetized and exsanguinated into pre-chilled serum separator tubes, the blood processed to serum which was stored in several aliquots at −80° C. A midline incision was made in the abdomen and the colon was evaluated for adhesions and stricture. The colon was removed and the length recorded. A midline incision was made the entire length of the colon, the contents removed and the colon weight and colon wall thickness recorded. A section of the colon was preserved in 20 volumes of 10% neutral buffered formalin. The end of the colon section at the rectal end of the section was edged with Evans Blue dye for orientation purposes. Another section of the colon was weighed and homogenized on an ice batch in 5 ml PBS. The homogenate was centrifuged and aliquots stored in labeled Eppendorf tubes at −80° C. The following parameters were used to determine colonic score: • Colonic Score Parameters • a) Adhesions: • 1) none=0 • 2) minimal=1 • 3) involving several bowel loops=2 • b) Strictures: • 1) none=0 • 2) mild=1 • 3) moderate=2 • 4) severe, proximal dilatation=3 • c) Ulcers: • 1) none=0 • 2) linear ulceration <1 cm=1 • 3) two linear ulcers <1 cm=2 • 4) more sites of ulceration or one large ulcer=3 • d) Wall thickness: • 1) less than 1 mm=0 • 2) 1-3 mm=1 • 3) >3 mm=2
# The formalin-preserved colon samples were submitted for histological preparation and evaluation. […]
# [2] = tested on: prophylactic TNBS rat colitis model; assay: TNBS dose escalation study, colon histopathology (Example 4); format: in vivo, Sprague-Dawley (SD) rats; set-up: key to colon necrosis: no: 0=No necrosis; very minimal: 0.5=Very minimal, focal, affects <2% of the total colon; minimal: 1.0=Minimal focal or multifocal, affects 2-10% of the total colon; mild: 2.0=Mild, focal or multifocal, affects 11-25% of the total colon; moderate: 3.0=Moderate focal or multifocal, affects 26-50% of the total colon; marked: 4.0=Marked focal or multifocal, affects 51-75% of the total colon; severe: 5.0=Severe affects >75% of the total colon
# Excerpt: Inflammation—neutrophil and macrophage infiltration predominantly, fibroplasia and neovascularization in areas of transmural necrosis 0=No inflammation 0.5=Very minimal focal infiltrates in mucosa only, affects <2% of the total colon 1.0=Minimal multifocal infiltrates in mucosa only, affects 2-10% of the total colon 2.0=Mild multifocal infiltrates affecting mucosa, submucosa, outer muscle layers and serosa, affects 11-25% of the total colon 3.0=Moderate multifocal infiltrates affecting mucosa, submucosa, outer muscle layers and serosa, affects 26-50% of the total colon 4.0=Marked multifocal to diffuse infiltrates affecting mucosa, submucosa, outer muscle layers and serosa, affects 51-75% of the total colon 5.0=Severe multifocal to diffuse infiltrates affecting mucosa, submucosa, outer muscle layers and serosa, affects >75% of the total colon. Necrosis—measure the total length of all colon sections, measure the total length of necrotic mucosa devoid of epithelium to determine % area affected 0=No necrosis 0.5=Very minimal, focal, affects <2% of the total colon 1.0=Minimal focal or multifocal, affects 2-10% of the total colon 2.0=Mild, focal or multifocal, affects 11-25% of the total colon 3.0=Moderate focal or multifocal, affects 26-50% of the total colon 4.0=Marked focal or multifocal, affects 51-75% of the total colon 5.0=Severe, affects >75% of the total colon Sprague-Dawley (SD) rats 118 (male, 180-200 g) were assigned to 11 groups of 10 or 12 rats per group so that each group has approximately the same mean weight. (Day −1) Initiate daily dosing of Groups 1-11 as in TABLE 1. Rats are deprived of food for 24 hours prior to disease initiation. 1) Intra-rectal (IR) administration is accomplished by briefly anesthetizing the rats, administering the test material at 10 ml/kg via a 20 gauge feeding needle inserted via the rectum, maintaining the rat in an inverted position with anus pinched shut until recovered from anesthesia. 2) Oral formulations are first dissolved in 0.05N acetic acid and pH adjusted to 6-7 with 0.1N NaOH. [table] (DAY 0) Prepare TNBS Solution (50% TNBS: 50% 200 proof ethanol; 16 mg/ml TNBS). Dose as in TABLE 3. After 1 hour, rats in Groups 2-11 are administered TNBS. Anesthetize rats and administer 64 mg/kg (4 ml/kg) TNBS Solution into colon of each rat, then re-feed rats. (DAY 7): Rats are weighed and dosed as in Table 3. […]. Terminal blood samples are collected from anesthetized rats. Samples are collected in pre-chilled-tubes and processed to serum. Store serum at −80° C. in several aliquots. A midline incision is made on each animal. Colon is removed and length measured and recorded. A longitudinal incision is made on each colon. Fecal material is gently washed away with saline. Excess fluid is gently blotted and colon weighed. The severity of IBD is assessed using the following scoring system: maximum score=10 • 1) Adhesions: • none=0 • minimal=1 • involving several bowel loops=2 • 2) Strictures: • none=0 • mild=1 • moderate=2 • severe, proximal dilatation=3 • 3) Ulcers: • none=0 • inear ulceration <1 cm=1 • two linear ulcers <1 cm=2 • more sites of ulceration or one large ulcer=3 • 4) Wall thickness: • less than 1 mm=0 • 1-3 mm=1 • >3 mm=2 A section of colon is preserved in 10 volumes of 10% neutral buffered formalin for histopathology. A section of colon is homogenized in PBS, centrifuged, and aliquots of the homogenate in labeled Eppendorf tubes are stored at −80° C. for cytokine analysis.
# [3] = 60 mpk, FIG. 5c (route not given, IR by group order of Table 2)
# [4] = 60 mpk, FIG. 4d (route not given, PO by group order of Table 2)
# [5] = 120 mpk, FIG. 5a (route not given, PO by group order of Table 2)
# [6] = 120 mpk, FIG. 5d (route not given, IR by group order of Table 2)
# [7] = 10 mpk, FIG. 4c, animal with approximate mean summed score for the group
smiles,measurement,setting,value
CC(C)(C)NCC(O)COc1cccc2c1CC(O)C(O)C2 (centres unmarked) [nadolol],colon inflammation,[1]; [3],"moderate (3.0=Moderate multifocal infiltrates affecting mucosa, submucosa, outer muscle layers and serosa, affects 26-50% of the total colon)"
same,colon necrosis,[1]; [3],"moderate (3.0=Moderate focal or multifocal, affects 26-50% of the total colon)"
same,colon inflammation,[1]; [4],"moderate (3.0=Moderate multifocal infiltrates affecting mucosa, submucosa, outer muscle layers and serosa, affects 26-50% of the total colon)"
same,colon necrosis,[1]; [4],"moderate (3.0=Moderate focal or multifocal, affects 26-50% of the total colon)"
same,colon inflammation,[1]; [5],"moderate (3.0=Moderate multifocal infiltrates affecting mucosa, submucosa, outer muscle layers and serosa, affects 26-50% of the total colon)"
same,colon necrosis,[1]; [5],"mild (2.0=Mild, focal or multifocal, affects 11-25% of the total colon)"
same,colon inflammation,[1]; [6],"mild (2.0=Mild multifocal infiltrates affecting mucosa, submucosa, outer muscle layers and serosa, affects 11-25% of the total colon)"
same,colon necrosis,[1]; [6],"mild (2.0=Mild, focal or multifocal, affects 11-25% of the total colon)"
same,colon inflammation,"[2]; IR 6 mpk, FIG. 12i","mild (2.0=Mild multifocal infiltrates affecting mucosa, submucosa, outer muscle layers and serosa, affects 11-25% of the total colon)"
same,colon necrosis,"[2]; IR 6 mpk, FIG. 12i",no
same,colon inflammation,"[2]; IR 19 mpk, FIG. 12j","moderate (3.0=Moderate multifocal infiltrates affecting mucosa, submucosa, outer muscle layers and serosa, affects 26-50% of the total colon)"
same,colon necrosis,"[2]; IR 19 mpk, FIG. 12j","mild (2.0=Mild, focal or multifocal, affects 11-25% of the total colon)"
same,colon inflammation,"[2]; IR 60 mpk, FIG. 12k","severe (5.0=Severe multifocal to diffuse infiltrates affecting mucosa, submucosa, outer muscle layers and serosa, affects >75% of the total colon)"
same,colon necrosis,"[2]; IR 60 mpk, FIG. 12k",severe (5.0=Severe affects >75% of the total colon)
same,colon inflammation,"[2]; PO 6 mpk, FIG. 12d","mild (2.0=Mild multifocal infiltrates affecting mucosa, submucosa, outer muscle layers and serosa, affects 11-25% of the total colon)"
same,colon necrosis,"[2]; PO 6 mpk, FIG. 12d",severe (5.0=Severe affects >75% of the total colon)
same,colon inflammation,"[2]; PO 19 mpk, FIG. 12e","marked (4.0=Marked multifocal to diffuse infiltrates affecting mucosa, submucosa, outer muscle layers and serosa, affects 51-75% of the total colon)"
same,colon necrosis,"[2]; PO 19 mpk, FIG. 12e","marked (4.0=Marked focal or multifocal, affects 51-75% of the total colon)"
same,colon inflammation,"[2]; PO 60 mpk, FIG. 12f","severe (5.0=Severe multifocal to diffuse infiltrates affecting mucosa, submucosa, outer muscle layers and serosa, affects >75% of the total colon)"
same,colon necrosis,"[2]; PO 60 mpk, FIG. 12f",severe (5.0=Severe affects >75% of the total colon)
same,colon inflammation,"[2]; PO 120 mpk, FIG. 12g","mild (2.0=Mild multifocal infiltrates affecting mucosa, submucosa, outer muscle layers and serosa, affects 11-25% of the total colon)"
same,colon necrosis,"[2]; PO 120 mpk, FIG. 12g",no
C[C@]12C=CC(=O)C=C1CC[C@@H]1[C@@H]2[C@@H](O)C[C@@]2(C)[C@H]1CC[C@]2(O)C(=O)CO [prednisolone],colon inflammation,[1]; [7],"minimal (1.0=Minimal multifocal infiltrates in mucosa only, affects 2-10% of the total colon)"
same,colon necrosis,[1]; [7],"very minimal (0.5=Very minimal, focal, affects <2% of the total colon)"
same,colon inflammation,"[2]; PO 10 mpk, FIG. 12c","minimal (1.0=Minimal multifocal infiltrates in mucosa only, affects 2-10% of the total colon)"
same,colon necrosis,"[2]; PO 10 mpk, FIG. 12c","minimal (1.0=Minimal focal or multifocal, affects 2-10% of the total colon)"
